Assay results as given in ChEMBL document CHEMBL1144622, “Novel malonamide derivatives as potent kappa opioid receptor agonists” (Bioorg Med Chem Lett, 2007).
pIC50, pKi: −log10 of the molar value.

Assays:
[1] = biological target: Opioid receptors; delta & kappa (Homo sapiens) (UniProt P41145+P41143); assay: Selectivity for human kappa opioid receptor over human delta opioid receptor; assay type: functional
[2] = biological target: Kappa-type opioid receptor (Homo sapiens, UniProt P41145); assay: Agonist activity at human kappa opioid receptor by [35S]GTP-gamma-S binding assay; assay type: functional
Chain of Kappa-type opioid receptor (P41145 whole entry): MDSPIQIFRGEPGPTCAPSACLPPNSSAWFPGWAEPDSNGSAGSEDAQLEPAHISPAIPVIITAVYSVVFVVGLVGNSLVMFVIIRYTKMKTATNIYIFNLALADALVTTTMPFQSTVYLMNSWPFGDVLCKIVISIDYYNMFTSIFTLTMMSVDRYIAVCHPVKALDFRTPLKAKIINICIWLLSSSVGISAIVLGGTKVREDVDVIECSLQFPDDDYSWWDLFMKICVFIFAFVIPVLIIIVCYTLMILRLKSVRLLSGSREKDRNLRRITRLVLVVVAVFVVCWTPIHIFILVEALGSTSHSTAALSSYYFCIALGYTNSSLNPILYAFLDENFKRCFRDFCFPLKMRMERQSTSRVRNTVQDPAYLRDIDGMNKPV

[3] = biological target: Cytochrome P450 2D6 (Homo sapiens, UniProt P10635); assay: Inhibition of CYP2D6; assay type: ADME
Chain of Cytochrome P450 2D6 (P10635 whole entry): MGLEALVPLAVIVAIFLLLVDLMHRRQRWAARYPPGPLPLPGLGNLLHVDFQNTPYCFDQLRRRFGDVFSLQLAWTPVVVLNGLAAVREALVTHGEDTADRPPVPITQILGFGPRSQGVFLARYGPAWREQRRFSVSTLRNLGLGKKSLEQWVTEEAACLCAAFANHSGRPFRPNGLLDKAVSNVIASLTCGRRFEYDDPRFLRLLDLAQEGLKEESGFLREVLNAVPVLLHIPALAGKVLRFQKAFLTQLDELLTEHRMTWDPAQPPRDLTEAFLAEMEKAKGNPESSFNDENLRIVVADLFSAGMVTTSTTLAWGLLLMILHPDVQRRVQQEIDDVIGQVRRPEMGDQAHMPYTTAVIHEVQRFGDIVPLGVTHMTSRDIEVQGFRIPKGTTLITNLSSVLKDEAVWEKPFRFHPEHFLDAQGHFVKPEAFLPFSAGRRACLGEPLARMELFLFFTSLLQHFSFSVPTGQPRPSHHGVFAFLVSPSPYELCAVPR

[4] = biological target: Opioid receptors; mu & kappa (Homo sapiens) (UniProt P41145+P35372); assay: Selectivity for human kappa opioid receptor over human mu opioid receptor; assay type: functional
Chain of Opioid receptors; mu & kappa (Homo sapiens) (P35372 whole entry, looked up): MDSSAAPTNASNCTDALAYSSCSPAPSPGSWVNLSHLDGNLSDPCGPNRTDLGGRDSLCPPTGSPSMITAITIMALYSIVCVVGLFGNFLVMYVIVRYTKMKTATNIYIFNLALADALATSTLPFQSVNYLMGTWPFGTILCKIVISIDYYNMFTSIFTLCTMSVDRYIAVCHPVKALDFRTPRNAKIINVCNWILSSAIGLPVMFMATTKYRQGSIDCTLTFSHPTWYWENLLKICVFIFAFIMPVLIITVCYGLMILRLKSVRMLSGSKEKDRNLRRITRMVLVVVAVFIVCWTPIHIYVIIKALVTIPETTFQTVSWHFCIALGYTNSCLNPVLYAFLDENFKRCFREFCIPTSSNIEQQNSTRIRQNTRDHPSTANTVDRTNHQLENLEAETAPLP
Chain of Opioid receptors; mu & kappa (Homo sapiens) (P41145 whole entry, looked up): as the sequence (P41145 whole entry) above

[5] = tested on: Mus musculus; assay: Analgesic activity in sc dosed mouse assessed as inhibition of acetic acid-induced writhing; assay type: functional
[6] = tested on: Rattus norvegicus; assay: Antinociceptive activity in rat at 300 ug, sc by formalin-induced flinching assay; assay type: functional

Chain of Opioid receptors; delta & kappa (Homo sapiens) (P41143 whole entry, looked up): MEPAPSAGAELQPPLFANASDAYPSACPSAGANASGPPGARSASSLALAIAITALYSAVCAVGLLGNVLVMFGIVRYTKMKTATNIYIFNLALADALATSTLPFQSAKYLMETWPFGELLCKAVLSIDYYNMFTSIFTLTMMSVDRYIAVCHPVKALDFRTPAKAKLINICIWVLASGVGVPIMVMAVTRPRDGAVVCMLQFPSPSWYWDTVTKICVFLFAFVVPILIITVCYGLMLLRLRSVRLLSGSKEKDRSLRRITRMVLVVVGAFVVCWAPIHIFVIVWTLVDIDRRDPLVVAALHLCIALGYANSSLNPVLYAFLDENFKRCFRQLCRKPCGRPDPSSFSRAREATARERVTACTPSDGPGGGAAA
Chain of Opioid receptors; delta & kappa (Homo sapiens) (P41145 whole entry, looked up): as the sequence (P41145 whole entry) above

| Compound | Ratio Ki [1] | pKi [2] | pIC50 [3] | Ratio Ki [4] | ED50 [5] [mg/kg] | Activity [6] [%] |
| --- | --- | --- | --- | --- | --- | --- |
| CN(C(=O)CCC(=O)Nc1cccnc1)[C@H](CN1CC[C@H](O)C1)c1ccccc1 | 5 | 6.55 | < 5.00 |  |  |  |
| CN(C(=O)CC(=O)Nc1ccc(CNS(C)(=O)=O)cc1)[C@H](CN1CC[C@H](O)C1)c1ccccc1 | 10 | 7.02 | 5.27 | 4.3 |  |  |
| CN(C(=O)CC(=O)Nc1cccnc1)[C@H](CN1CC[C@H](O)C1)c1ccccc1 | 15 | 8.89 | < 5.00 | 450 |  |  |
| CN(C(=O)CCC(=O)Nc1nccs1)[C@H](CN1CC[C@H](O)C1)c1ccccc1 | 14 | 7.64 | 5.47 |  |  |  |
| CN(C(=O)CC(=O)Nc1ccccc1)[C@H](CN1CC[C@H](O)C1)c1ccccc1 | 25 | 9.57 | 5.28 | 120 | 0.03 | 93 |
| CN(C(=O)CCC(=O)Nc1ccccc1)[C@H](CN1CC[C@H](O)C1)c1ccccc1 | 220 | 8.22 | 5.07 |  |  |  |
| CN(C(=O)NCC(=O)Nc1ccccc1)[C@H](CN1CC[C@H](O)C1)c1ccccc1 | 8.7 | 8.19 | 5.29 | 110 |  |  |
| CN(C(=O)CC(=O)Nc1nccs1)[C@H](CN1CC[C@H](O)C1)c1ccccc1 | 71 | 9.28 | 6.15 | 180 |  |  |
| CN(C(=O)CC(=O)Nc1ccc(NS(C)(=O)=O)cc1)[C@H](CN1CC[C@H](O)C1)c1ccccc1 | 39 | 7.54 | 5.00 | 4.8 |  |  |
| CN(C(=O)CC(=O)NCc1ccccc1)[C@H](CN1CC[C@H](O)C1)c1ccccc1 | 40 | 7.82 | 5.49 | 120 |  |  |
